Data: PubChem BioAssay AID2060326 (Molecular Pharmacology Branch, DTP, NCI, 2025)

Test system: MDA-MB-468 multi-cell spheroids, viability
Experiment: Anticancer human tumor MDA-MB-468 cell line growth inhibition [IpAb];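 also: spheroids exposed to agents for seven days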;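 as to viability, T/C: 100% = DMSO vehicle control viability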
Settings: for IC50: curve of first compound; for viability, T/C: stronger effect = lower value
Text: Combinatorial screen of targeted agents with ipatasertib and abemaciclib in multi-cell type tumor spheroids
A high-throughput screen of multi-cell type tumor spheroids was designed to identify active combinations of targeted small molecules and ipatasertib or abemaciclib. Complex spheroids include a stromal component modeled by human endothelial cells (HUVEC) and fibroblasts modeled by human mesenchymal stem cells (MSCs). The concentration ranges selected for each drug and investigational agent were based upon clinically achievable concentrations if the clinical Cmax of the agent was known.
Compounds. The drugs and investigational agents: ipatasertib (NSC767898), abemaciclib(NSC768073), selumetinib (NSC741078), trametinib (758246), adavosertib (NSC754352), everolimus (NSC733504), sapanisertib (NSC764658), vemurafenib (NSC761431), venetoclax (NSC766270), copanlisib (NSC809693), apelisib (NSC765974), palbociblib (NSC758247), vemurafenib (NSC761431), dabrafenib (NSC764134), ravoxertinib (NSC781343), BMS-387032 (NSC767048), sotorasib (NSC818433), talazoparib (NSC767125) and afursertib (NSC778305), were obtained from the National Cancer Institute (NCI) Developmental Therapeutics Program Chemical Repository. The FDA-approved anticancer drug set is available from the NCI Developmental Therapeutics Program. […] The stock solutions were prepared in dimethyl sulfoxide (DMSO, Sigma-Aldrich, St. Louis, MO, cat. D2650) at 800-fold the tested concentration and stored at -70 degrees C prior to their use. All drugs and investigational agents were tested over a range starting from a high concentration at or near the clinical Cmax and decreasing in half-log increments. If the clinical Cmax for an agent had not been determined, the highest concentration tested was 10 microM.
NCI60 Cell Culture. NCI60 cell lines were obtained from the NCI Developmental Therapeutics Program Tumor Repository. For each lot of cells, the Repository performed Applied Biosystems AmpFLSTR Identifiler testing with PCR amplification to confirm consistency with the published Identifier STR profile for each cell line. Cells were kept in continuous culture for no more than 20 passages. The optimal seeding densities for each of the cell lines at each time point assessed were determined prior to performing the concentration response studies. Briefly, the NCI60 human tumor lines were grown as monolayers in RPMI 1640 medium supplemented with 10% FBS and 2 mmol/L L-glutamine.
An additional 9 lines were from the NCI60 cell line panel including MDA-MB-231 breast carcinoma, MDA-MB-468 breast carcinoma, MCF7 breast carcinoma, Hs578T breast carcinoma, MALME-3M melanoma, SK-MEL-2 melanoma, SK-OV-3 ovarian carcinoma, DU-145 prostate carcinoma, PC-3 prostate carcinoma, all cell lines along with major genetic alterations are listed on Table 2. Pooled donor human umbilical vein endothelial cells (HUVEC, Lonza, cat. CC-2519) and human mesenchymal stem cells (hMSC, Lonza, cat. PT-2501) were purchased from Lonza (Walkersville, MD).
PDMR cell lines were grown in complete medium (DC medium): Dulbecco's modified Eagle's medium (DMEM)/F12 supplemented with 5% fetal bovine serum (FBS), 2 mM L-glutamine, 100 U/mL penicillin and 100 µg/ml streptomycin, 0.4 µg/ml hydrocortisone, 10 ng/ml epidermal growth factor (EGF) recombinant human protein, 24 µg/mL adenine, and 0.1 mg/mL primocin. During culture from frozen stock vials, PDMR cells were cultured in the same medium containing 10 µM Y-27632 (see Table 3). The PDCs were cultured in complete DMEM/F12 media without 10 microM Y-27632 dihydrochloride for at least two passages prior to the screen. The pooled donor HUVEC and hMSC were cultured in endothelial cell growth medium 2 (PromoCell, Heidelberg, Germany, cat. C-22011) and mesenchymal stem cell growth medium 2 (PromoCell, cat. C-28009), respectively. For all experiments, HUVEC and hMSC were used at passages </=5.
[…]

[1] = second compound 0.1 µM, first compound 0.0316 µM
[2] = second compound 0.1 µM, first compound 0.1 µM
[3] = second compound 0.1 µM, first compound 0.316 µM
[4] = second compound 0.1 µM, first compound 1 µM
[5] = second compound 0.1 µM, first compound 3.16 µM
[6] = second compound 0.1 µM, first compound 10 µM
[7] = second compound 0.316 µM, first compound 0.0316 µM
[8] = second compound 0.316 µM, first compound 0.1 µM
[9] = second compound 0.316 µM, first compound 0.316 µM
[10] = second compound 0.316 µM, first compound 1 µM
[11] = second compound 0.316 µM, first compound 3.16 µM
[12] = second compound 0.316 µM, first compound 10 µM
[13] = second compound 1 µM, first compound 0.0316 µM
[14] = second compound 1 µM, first compound 0.1 µM
[15] = second compound 1 µM, first compound 0.316 µM
[16] = second compound 1 µM, first compound 1 µM
[17] = second compound 1 µM, first compound 3.16 µM
[18] = second compound 1 µM, first compound 10 µM
[19] = second compound 3.16 µM, first compound 0.0316 µM
[20] = second compound 3.16 µM, first compound 0.1 µM
[21] = second compound 3.16 µM, first compound 0.316 µM
[22] = second compound 3.16 µM, first compound 1 µM
[23] = second compound 3.16 µM, first compound 3.16 µM
[24] = second compound 3.16 µM, first compound 10 µM
[25] = second compound 10 µM, first compound 0.0316 µM
[26] = second compound 10 µM, first compound 0.1 µM
[27] = second compound 10 µM, first compound 0.316 µM
[28] = second compound 10 µM, first compound 1 µM
[29] = second compound 10 µM, first compound 3.16 µM
[30] = second compound 10 µM, first compound 10 µM

With `C=CCn1c(=O)c2cnc(Nc3ccc(N4CCN(C)CC4)cc3)nc2n1-c1cccc(C(C)(C)O)n1` + CCN1CCN(Cc2ccc(Nc3ncc(F)c(-c4cc(F)c5nc(C)n(C(C)C)c5c4)n3)nc2)CC1 the IC50 (second compound 0.01 µM) was 467 nM, the IC50 (second compound 0.0316 µM) was 461 nM and the IC50 (second compound 0.1 µM) was 408 nM. It also gave an IC50 (second compound 0.316 µM) of 560 nM, an IC50 (second compound 1 µM) of 417 nM and a viability, T/C (second compound 0.01 µM, first compound 0.0316 µM) of 108%. It also gave a viability, T/C (second compound 0.01 µM, first compound 0.1 µM) of 75.5%, a viability, T/C (second compound 0.01 µM, first compound 0.316 µM) of 72.8% and a viability, T/C (second compound 0.01 µM, first compound 1 µM) of 6.04%. The viability, T/C (second compound 0.01 µM, first compound 3.16 µM) was 2.55%, the viability, T/C (second compound 0.01 µM, first compound 10 µM) was 2.34% and the viability, T/C (second compound 0.0316 µM, first compound 0.0316 µM) was 96.3%. For the same compound, the viability, T/C (second compound 0.0316 µM, first compound 0.1 µM) was 87.9%, the viability, T/C (second compound 0.0316 µM, first compound 0.316 µM) was 71.3% and the viability, T/C (second compound 0.0316 µM, first compound 1 µM) was 6.12%. For the same compound, the viability, T/C (second compound 0.0316 µM, first compound 3.16 µM) was 2.93%, the viability, T/C (second compound 0.0316 µM, first compound 10 µM) was 2.24% and the viability, T/C [1] was 121%. It also gave a viability, T/C [2] of 93.1%, a viability, T/C [3] of 67.3% and a viability, T/C [4] of 5.75%. The viability, T/C [5] was 3.42%, the viability, T/C [6] was 2.91% and the viability, T/C [7] was 105%. The viability, T/C [8] was 102%, the viability, T/C [9] was 89.7% and the viability, T/C [10] was 9.63%. The viability, T/C [11] was 3.67%, the viability, T/C [12] was 2.2% and the viability, T/C [13] was 72.3%. For the same compound, the viability, T/C [14] was 79.5%, the viability, T/C [15] was 63.5% and the viability, T/C [16] was 6.76%. It also gave a viability, T/C [17] of 2.84% and a viability, T/C [18] of 1.01%.
For `C=CCn1c(=O)c2cnc(Nc3ccc(N4CCN(C)CC4)cc3)nc2n1-c1cccc(C(C)(C)O)n1` + CC(C)NCC(C(=O)N1CCN(c2ncnc3c2C(C)CC3O)CC1)c1ccc(Cl)cc1, the IC50 (second compound 0.1 µM) was 383 nM, the IC50 (second compound 0.316 µM) was 212 nM and the IC50 (second compound 1 µM) was 60.2 nM. The IC50 (second compound 3.16 µM) was less than 31.6 nM, the IC50 (second compound 10 µM) was less than 31.6 nM and the viability, T/C [1] was 101%. For the same compound, the viability, T/C [2] was 89.3%, the viability, T/C [3] was 59.5% and the viability, T/C [4] was 5.21%. The viability, T/C [5] was 3.03%, the viability, T/C [6] was 2.74% and the viability, T/C [7] was 78.6%. It also gave a viability, T/C [8] of 63.7%, a viability, T/C [9] of 42.6% and a viability, T/C [10] of 2.96%. For the same compound, the viability, T/C [11] was 3.13%, the viability, T/C [12] was 2.21% and the viability, T/C [13] was 59.4%. The viability, T/C [14] was 40.8%, the viability, T/C [15] was 25.7% and the viability, T/C [16] was 2.27%. For the same compound, the viability, T/C [17] was 2.93%, the viability, T/C [18] was 1.68% and the viability, T/C [19] was 32.1%. It also gave a viability, T/C [20] of 27.2%, a viability, T/C [21] of 15.7% and a viability, T/C [22] of 1.82%. It also gave a viability, T/C [23] of 3.18%, a viability, T/C [24] of 1.47% and a viability, T/C [25] of 17.8%. The viability, T/C [26] was 14%, the viability, T/C [27] was 9.24% and the viability, T/C [28] was 1.81%. The viability, T/C [29] was 2.55% and the viability, T/C [30] was 1.3%.
For `COc1c(OCCCN2CCOCC2)ccc2c3n(c(=NC(=O)c4cnc(N)nc4)nc12)CCN3` + CC(C)NCC(C(=O)N1CCN(c2ncnc3c2C(C)CC3O)CC1)c1ccc(Cl)cc1, the IC50 (second compound 0.1 µM) was 83.7 nM, the IC50 (second compound 0.316 µM) was 33.8 nM and the IC50 (second compound 1 µM) was less than 3.16 nM. It also gave an IC50 (second compound 3.16 µM) of less than 3.16 nM, an IC50 (second compound 10 µM) of less than 3.16 nM and a viability, T/C (second compound 0.1 µM, first compound 0.00316 µM) of 98.4%. It also gave a viability, T/C (second compound 0.1 µM, first compound 0.01 µM) of 78.2%, a viability, T/C [1] of 70.2% and a viability, T/C [2] of 49.7%. It also gave a viability, T/C [3] of 20.3%, a viability, T/C [4] of 3.61% and a viability, T/C (second compound 0.316 µM, first compound 0.00316 µM) of 68.5%. It also gave a viability, T/C (second compound 0.316 µM, first compound 0.01 µM) of 56.1%, a viability, T/C [7] of 54% and a viability, T/C [8] of 36.3%. For the same compound, the viability, T/C [9] was 18.1%, the viability, T/C [10] was 2.31% and the viability, T/C (second compound 1 µM, first compound 0.00316 µM) was 51.3%. For the same compound, the viability, T/C (second compound 1 µM, first compound 0.01 µM) was 40.3%, the viability, T/C [13] was 38.9% and the viability, T/C [14] was 26.8%. For the same compound, the viability, T/C [15] was 11.9%, the viability, T/C [16] was 1.77% and the viability, T/C (second compound 3.16 µM, first compound 0.00316 µM) was 30.4%. It also gave a viability, T/C (second compound 3.16 µM, first compound 0.01 µM) of 26.5%, a viability, T/C [19] of 23% and a viability, T/C [20] of 19.1%. For the same compound, the viability, T/C [21] was 9.55%, the viability, T/C [22] was 1.46% and the viability, T/C (second compound 10 µM, first compound 0.00316 µM) was 16.1%. The viability, T/C (second compound 10 µM, first compound 0.01 µM) was 12.8%, the viability, T/C [25] was 11% and the viability, T/C [26] was 8.37%. For the same compound, the viability, T/C [27] was 4.92% and the viability, T/C [28] was 0.95%.
Compound `C=CC(=O)N1CCN(c2nc(=O)n(-c3c(C)ccnc3C(C)C)c3nc(-c4c(O)cccc4F)c(F)cc23)C(C)C1` (stereo not given) + CC(C)NCC(C(=O)N1CCN(c2ncnc3c2C(C)CC3O)CC1)c1ccc(Cl)cc1 has an IC50 (second compound 0.1 µM) of 7040 nM, an IC50 (second compound 0.316 µM) of 4930 nM and an IC50 (second compound 1 µM) of 4170 nM. It also gave an IC50 (second compound 3.16 µM) of less than 31.6 nM, an IC50 (second compound 10 µM) of less than 31.6 nM and a viability, T/C [1] of 115%. For the same compound, the viability, T/C [2] was 123%, the viability, T/C [3] was 118% and the viability, T/C [4] was 105%. It also gave a viability, T/C [5] of 78.2%, a viability, T/C [6] of 37.8% and a viability, T/C [7] of 94.4%. It also gave a viability, T/C [8] of 69.8%, a viability, T/C [9] of 68.4% and a viability, T/C [10] of 71.6%. The viability, T/C [11] was 67.3%, the viability, T/C [12] was 27.4% and the viability, T/C [13] was 64.5%. It also gave a viability, T/C [14] of 55.9%, a viability, T/C [15] of 62.4% and a viability, T/C [16] of 57.6%. It also gave a viability, T/C [17] of 59.8%, a viability, T/C [18] of 19.2% and a viability, T/C [19] of 42.3%. The viability, T/C [20] was 41.2%, the viability, T/C [21] was 44.5% and the viability, T/C [22] was 39.6%. It also gave a viability, T/C [23] of 29.6%, a viability, T/C [24] of 8.37% and a viability, T/C [25] of 19.5%. The viability, T/C [26] was 22.1%, the viability, T/C [27] was 20.5% and the viability, T/C [28] was 19.3%. The viability, T/C [29] was 13.8% and the viability, T/C [30] was 5.04%.
